Source: ChEMBL document CHEMBL4387743, “Design, synthesis and structure activity relationships of indazole and indole derivatives as potent glucagon receptor antagonists” (Bioorg Med Chem Lett, 2019)

Tests used:
[1] = target: Glucagon receptor (Homo sapiens, UniProt P47871); experiment: Antagonist activity at full length human recombinant GCGR transfected in HEK293 cells assessed as inhibition of glucagon-stimulated cAMP by LANCE assay; type: functional, cell-based
[2] = AUClast in C57 black mouse at 20 mg/kg, po; type: ADME, organism-based; parameters: dose 20 mg/kg, time 0 - last, route oral; conditions: in vivo
[3] = Cmax in C57 black mouse at 20 mg/kg, po; type: ADME, organism-based; parameters: dose 20 mg/kg, route oral; conditions: in vivo
[4] = Clearance in C57 black mouse at 5 mg/kg, iv; type: ADME, organism-based; conditions: in vivo
[5] = Oral bioavailability in C57 black mouse at 20 mg/kg; type: ADME, organism-based; conditions: in vivo
[6] = Volume of distribution at steady state in C57 black mouse at 5 mg/kg, iv; type: ADME, organism-based; conditions: in vivo, read-out: Vdss
[7] = Elimination half life in C57 black mouse at 5 mg/kg, iv; type: ADME, organism-based; conditions: in vivo, read-out: beta t1/2 (converted)
[8] = Elimination half life in C57 black mouse at 20 mg/kg, po; type: ADME, organism-based; conditions: in vivo, read-out: beta t1/2 (converted)
[9] = AUClast in Sprague Dawley rat at 10 mg/kg, po; type: ADME, organism-based; parameters: dose 10 mg/kg, route oral, time 0 - last; conditions: in vivo
[10] = Oral bioavailability in Sprague Dawley rat at 10 mg/kg; type: ADME, organism-based; conditions: in vivo
[11] = Volume of distribution at steady state in Sprague Dawley rat at 2 mg/kg, iv; type: ADME, organism-based; conditions: in vivo, read-out: Vdss
[12] = Elimination half life in Sprague Dawley rat at 10 mg/kg, po; type: ADME, organism-based; conditions: in vivo, read-out: beta t1/2 (converted)
[13] = Elimination half life in Sprague Dawley rat at 2 mg/kg, iv; type: ADME, organism-based; conditions: in vivo, read-out: beta t1/2 (converted)
[14] = Clearance in Sprague Dawley rat at 2 mg/kg, iv; type: ADME, organism-based; conditions: in vivo
[15] = Cmax in Sprague Dawley rat at 10 mg/kg, po; type: ADME, organism-based; parameters: dose 10 mg/kg, route oral; conditions: in vivo

Chain of Glucagon receptor (P47871 whole entry): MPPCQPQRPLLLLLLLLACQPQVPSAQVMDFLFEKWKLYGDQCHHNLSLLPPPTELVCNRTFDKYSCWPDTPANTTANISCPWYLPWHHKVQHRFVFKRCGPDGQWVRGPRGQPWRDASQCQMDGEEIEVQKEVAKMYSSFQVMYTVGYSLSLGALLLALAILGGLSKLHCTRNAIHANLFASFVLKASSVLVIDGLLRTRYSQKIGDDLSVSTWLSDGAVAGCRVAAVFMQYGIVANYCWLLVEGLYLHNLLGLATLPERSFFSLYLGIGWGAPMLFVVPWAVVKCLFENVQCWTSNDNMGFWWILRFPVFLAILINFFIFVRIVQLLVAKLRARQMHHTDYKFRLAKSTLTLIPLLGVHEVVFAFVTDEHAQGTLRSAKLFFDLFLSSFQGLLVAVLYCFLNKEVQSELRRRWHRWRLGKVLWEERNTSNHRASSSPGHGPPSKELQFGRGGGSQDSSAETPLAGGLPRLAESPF

A Ki [1] of 1250 nM was found for `CC(C)CC(c1ccc(C(=O)NCCC(=O)O)cc1)n1ncc2cc(-c3ccc(N4CCN(C)CC4)cc3)ccc21` (racemic) in this work.
An AUC(0-t) [2] of 290 µM·h, a Cmax [3] of 18.5 µM and a clearance [4] of 1.89 mL/min/kg were found for `Cc1cc(C(F)(F)F)ccc1-c1ccc2nn(C(CC(C)C)c3ccc(C(=O)NCCC(=O)O)cc3)cc2c1Cl` (racemic) in this work. The bioavailability [5] was 97.7%, the Vd [6] was 0.9 L/kg and the half-life [7] was 6.6 h. The Ki [1] was 19 nM.
A Ki [1] of 29 nM was found for `Cc1c(-c2ccc(C(F)(F)F)cc2Cl)ccc2nn(C(CC(C)C)c3ccc(C(=O)NCCC(=O)O)cc3)cc12` (racemic) in this work.
A Ki [1] of 85 nM was found for `Cc1cc(C(F)(F)F)ccc1-c1ccc2c(ccn2C(CC(C)C)c2ccc(C(=O)NCCC(=O)O)cc2)c1` (racemic) in this work.
A Ki [1] of 125 nM was found for `CC(C)CC(c1ccc(C(=O)NCCC(=O)O)cc1)n1ncc2cc(-c3ccc(C(C)(C)C)cc3)ccc21` (racemic) in this work.
A Ki [1] of 1340 nM was found for `Cc1cc(-c2ccc(C(C)(C)C)cc2)cc2cn(C(CC(C)C)c3ccc(C(=O)NCCC(=O)O)cc3)nc12` (racemic) in this work.
A Ki [1] of 3000 nM was found for `CC(C)CC(c1ccc(C(=O)NCCC(=O)O)cc1)n1ncc2cc(-c3ccc(N4CCOCC4)cc3)ccc21` (racemic) in this work.
A Ki [1] of 260 nM was found for `CC(C)CC(c1ccc(C(=O)NCCC(=O)O)cc1)n1ncc2cc(-c3ccc(C(F)(F)F)cc3)ccc21` (racemic) in this work.
A Ki [1] of 285 to 650 nM was found for `CC(C)CC(c1ccc(C(=O)NCCC(=O)O)cc1)n1ncc2cc(-c3ccc(OC(F)(F)F)cc3)ccc21` (racemic) in this work.
An AUC(0-t) [2] of 111 µM·h, a Cmax [3] of 11.1 µM and a clearance [4] of 4.83 mL/min/kg were found for `Cc1cc(C(F)(F)F)ccc1-c1cc2cnn(C(CC(C)C)c3ccc(C(=O)NCCC(=O)O)nc3)c2cc1C` (racemic) in this work. It also gave a bioavailability [5] of 94.7%, a Vd [6] of 1.85 L/kg and a half-life [7] of 5 h. The half-life [8] was 4.8 h.
A Ki [1] of 110 nM was found for `CC(C)CC(c1ccc(C(=O)NCCC(=O)O)cc1)n1ccc2cc(-c3ccc(C(C)(C)C)cc3)ccc21` (racemic) in this work.
A Ki [1] of 1650 nM was found for `CC(C)CC(c1ccc(C(=O)NCCC(=O)O)cc1)n1ncc2cc(-c3cc(Cl)cc(Cl)c3)ccc21` (racemic) in this work.
A Ki [1] greater than 2600 nM was found for `Cc1cc(-c2ccc(C(C)(C)C)cc2)cc2ccn(C(CC(C)C)c3ccc(C(=O)NCCC(=O)O)nc3)c12` (racemic) in this work.
An AUC(0-t) [9] of 14.3 µM·h, a bioavailability [10] of 51.7% and an AUC(0-t) [2] of 116 µM·h were found for `CC(C)CC(c1ccc(C(=O)NCCC(=O)O)cc1)n1ccc2cc(-c3ccc(C(F)(F)F)cc3)ccc21` (racemic) in this work. The Cmax [3] was 8.1 µM, the clearance [4] was 3.77 mL/min/kg and the bioavailability [5] was 68.7%. The Vd [11] was 3.65 L/kg, the Vd [6] was 1.05 L/kg and the half-life [12] was 5.2 h. The half-life [7] was 3.7 h, the Ki [1] was 115 nM and the half-life [13] was 4.6 h. It also gave a clearance [14] of 12.2 mL/min/kg, a Cmax [15] of 1.4 µM and a half-life [8] of 3.9 h.
A Ki [1] of 700 nM was found for `Cc1cc(C(F)(F)F)ccc1-c1cc(F)c2c(ccn2C(CC(C)C)c2ccc(C(=O)NCCC(=O)O)cc2)c1C` (racemic) in this work.
